Test results from patent US20260000656A1, “ANTIFUNGAL AGENTS WITH ENHANCED ACTIVITY IN ACIDIC PH” (Scynexis, Inc., priority 2017, published 2026).

How the values were obtained:
clinical = assay type: in vivo, human; details: female, human, in vivo, po, 300 mg
Description: A Phase 2 study was conducted to evaluate the safety, efficacy, tolerability, and pharmacokinetics of five dose regimens of oral SCY-078 (administered as the citrate salt) compared to oral fluconazole in adult, female patients with moderate-to-severe acute VVC (defined as having a signs and symptoms (S&S) score of 7 or greater). A total of 186 intent-to-treat (ITT) patients were randomized into six different treatment arms as follows: five different dosing regimens of oral SCY-078 and one oral fluconazole treatment arm. The modified intent-to-treat (mITT) population was used for efficacy analysis and included 153 patients with culture-confirmed Candida spp. vaginal infection (positive microscopic examination of vaginal secretions showing yeast, vaginal pH≤4.5) at baseline. The doses of SCY-078 tested ranged from 600 mg to 1800 mg total dose administered over the duration of treatment, and the durations of treatment were 1 or 3 days:
The primary efficacy endpoint was clinical cure, which according to current FDA guidance is defined as complete resolution (score=0) of all signs and symptoms at the Day 10 Test-of-Cure visit without the need of additional antifungal therapy. Secondary endpoints included mycological eradication (negative culture) and a composite endpoint including both clinical cure and mycological eradication. Response was also evaluated based on the percent of patients achieving a noticeable improvement in their signs and symptoms, either by achieving an S&S score of 0 or 1 or an absolute change (reduction) in mean composite S&S score from baseline. An S&S score is based on a patient's reported symptoms (burning, itching, and irritation) and investigator-assessed signs (swelling, redness, and excoriations); each sign and symptom can be absent, mild, moderate, or severe, with a corresponding score from 0 to 3; the total composite scale is 0 to 18 points. Response was further evaluated by assessing the number of patients who received rescue antifungal therapy. Patients were assessed at the Day 10 Test-of-Cure visit and also at a Day 25 Follow-Up visit. The study was not designed to achieve statistically significant differences in any of the evaluated endpoints.

[1] = Plasma, vaginal secretion and vaginal tissue exposure after oral administration in mice; assay type: in vivo; details: for AUC(0-t): po
Description: Female CD-1 mice (n=3/time point/dose group) were given SCY-078 via oral gavage for either one, two, or eight total doses ranging from 10 to 80 mg/kg, consisting of QD (once per day) and BID (twice per day) dose regimens, with and without loading doses, as follows: • QD (Day 1): 10, 20, 40, 80 mg/kg • BID (Day 1): 10/5, 20/10, 40/20, 80/40 mg/kg • BID repeat dose (Days 1-4): 10/5, 20/10 40/20, 80/40 mg/kg on Day 1; 5, […] mg/kg BID on Days 2 to 4
Blood, vulvo-vaginal tissue and vaginal secretions were collected pre-dose, and at 1, 2, 4, 6, 8, 12, 18 and 24 hours post-dose, following the final dose administered per group. Samples were then processed, extracted via protein precipitation and analyzed for SCY-078 via LC MS/MS.

SMILES: CC(C)[C@@H](C)[C@@]1(C)CC[C@]2(C)[C@H]3CC[C@@H]4[C@@]5(COC[C@]4(C)[C@@H](OC[C@](C)(N)C(C)(C)C)[C@H](n4ncnc4-c4ccncc4)C5)C3=CC[C@@]2(C)[C@@H]1C(=O)O [SCY-078]
- AUC(0-t) (clinical): 3 to 8 µM·h
- Cmax (clinical): 200 to 500 nM
- AUC(0-t) ([1]; female, CD-1, mouse, plasma, 10 mg/kg, oral gavage, QD 10 mg/kg (Day 1), read-out: AUC0-24 Plasma): 8330 ng·h/mL
- AUC(0-t) ([1]; female, CD-1, mouse, plasma, 20 mg/kg, oral gavage, QD 20 mg/kg (Day 1), read-out: AUC0-24 Plasma): 19700 ng·h/mL
- AUC(0-t) ([1]; female, CD-1, mouse, plasma, 40 mg/kg, oral gavage, QD 40 mg/kg (Day 1), read-out: AUC0-24 Plasma): 42300 ng·h/mL
- AUC(0-t) ([1]; female, CD-1, mouse, plasma, 80 mg/kg, oral gavage, QD 80 mg/kg (Day 1), read-out: AUC0-24 Plasma): 75500 ng·h/mL
- AUC(0-t) ([1]; female, CD-1, mouse, plasma, BID regimen, 10/5-80/40 mg/kg, read-out: AUC0-24 in plasma, range over doses): 7470 to 101000 ng·h/mL
- AUC(0-t) ([1]; female, CD-1, mouse, plasma, BID repeat dose regimen (Days 1-4), read-out: AUC0-24 in plasma, range over doses): 7470 to 101000 ng·h/mL
- AUC(0-t) ([1]; female, CD-1, mouse, plasma, QD regimen, 10-80 mg/kg, read-out: AUC0-24 in plasma, range over doses): 8330 to 75500 ng·h/mL
- AUC(0-t) ([1]; female, CD-1, mouse, plasma, oral gavage, BID 10/5 mg/kg (Day 1), read-out: AUC0-24 Plasma): 7470 ng·h/mL
- AUC(0-t) ([1]; female, CD-1, mouse, plasma, oral gavage, BID 20/10 mg/kg (Day 1), read-out: AUC0-24 Plasma): 16600 ng·h/mL
- AUC(0-t) ([1]; female, CD-1, mouse, plasma, oral gavage, BID 40/20 mg/kg (Day 1), read-out: AUC0-24 Plasma): 46500 ng·h/mL
- AUC(0-t) ([1]; female, CD-1, mouse, plasma, oral gavage, BID 80/40 mg/kg (Day 1), read-out: AUC0-24 Plasma): 101000 ng·h/mL
- AUC(0-t) ([1]; female, CD-1, mouse, plasma, oral gavage, BID repeat-dose 10/5 mg/kg (Days 1-4), read-out: AUC0-24 Plasma): 5120 ng·h/mL
- AUC(0-t) ([1]; female, CD-1, mouse, plasma, oral gavage, BID repeat-dose 20/10 mg/kg (Days 1-4), read-out: AUC0-24 Plasma): 14600 ng·h/mL
- AUC(0-t) ([1]; female, CD-1, mouse, plasma, oral gavage, BID repeat-dose 40/20 mg/kg (Days 1-4), read-out: AUC0-24 Plasma): 53000 ng·h/mL
- AUC(0-t) ([1]; female, CD-1, mouse, plasma, oral gavage, BID repeat-dose 80/40 mg/kg (Days 1-4), read-out: AUC0-24 Plasma): 143000 ng·h/mL
- AUC(0-t) ([1]; female, CD-1, mouse, vaginal secretion, 10 mg/kg, oral gavage, QD 10 mg/kg (Day 1), read-out: AUC0-24 Vaginal Secretion): 1320 ng·h/mL
- AUC(0-t) ([1]; female, CD-1, mouse, vaginal secretion, 20 mg/kg, oral gavage, QD 20 mg/kg (Day 1), read-out: AUC0-24 Vaginal Secretion): 1870 ng·h/mL
- AUC(0-t) ([1]; female, CD-1, mouse, vaginal secretion, 40 mg/kg, oral gavage, QD 40 mg/kg (Day 1), read-out: AUC0-24 Vaginal Secretion): 4410 ng·h/mL
- AUC(0-t) ([1]; female, CD-1, mouse, vaginal secretion, 80 mg/kg, oral gavage, QD 80 mg/kg (Day 1), read-out: AUC0-24 Vaginal Secretion): 12300 ng·h/mL
- AUC(0-t) ([1]; female, CD-1, mouse, vaginal secretion, oral gavage, BID 10/5 mg/kg (Day 1), read-out: AUC0-24 Vaginal Secretion): 1550 ng·h/mL
- AUC(0-t) ([1]; female, CD-1, mouse, vaginal secretion, oral gavage, BID 20/10 mg/kg (Day 1), read-out: AUC0-24 Vaginal Secretion): 4210 ng·h/mL
- AUC(0-t) ([1]; female, CD-1, mouse, vaginal secretion, oral gavage, BID 40/20 mg/kg (Day 1), read-out: AUC0-24 Vaginal Secretion): 10600 ng·h/mL
- AUC(0-t) ([1]; female, CD-1, mouse, vaginal secretion, oral gavage, BID 80/40 mg/kg (Day 1), read-out: AUC0-24 Vaginal Secretion): 17800 ng·h/mL
- AUC(0-t) ([1]; female, CD-1, mouse, vaginal secretion, oral gavage, BID repeat-dose 10/5 mg/kg (Days 1-4), read-out: AUC0-24 Vaginal Secretion): 4320 ng·h/mL
- AUC(0-t) ([1]; female, CD-1, mouse, vaginal secretion, oral gavage, BID repeat-dose 20/10 mg/kg (Days 1-4), read-out: AUC0-24 Vaginal Secretion): 8630 ng·h/mL
- AUC(0-t) ([1]; female, CD-1, mouse, vaginal secretion, oral gavage, BID repeat-dose 40/20 mg/kg (Days 1-4), read-out: AUC0-24 Vaginal Secretion): 38800 ng·h/mL
- AUC(0-t) ([1]; female, CD-1, mouse, vaginal secretion, oral gavage, BID repeat-dose 80/40 mg/kg (Days 1-4), read-out: AUC0-24 Vaginal Secretion): 120000 ng·h/mL
- AUC(0-t) ([1]; female, CD-1, mouse, vaginal secretions, BID regimen, 10/5-80/40 mg/kg, read-out: AUC0-24 in vaginal secretions, range over doses): 1550 to 17800 ng·h/mL
- AUC(0-t) ([1]; female, CD-1, mouse, vaginal secretions, BID repeat dose regimen (Days 1-4), read-out: AUC0-24 in vaginal secretions, range over doses): 4320 to 120000 ng·h/mL
- AUC(0-t) ([1]; female, CD-1, mouse, vaginal secretions, QD regimen, 10-80 mg/kg, read-out: AUC0-24 in vaginal secretions, range over doses): 1320 to 12300 ng·h/mL
- Kp ([1]; female, CD-1, mouse, vaginal tissue, oral, repeat-dosing, read-out: accumulation in vaginal tissue relative to plasma): > 10
- AUC0-24 Vaginal Tissue ([1]; oral gavage, BID 10/5 mg/kg (Day 1)): 24.6 µg·h/g
- AUC0-24 Vaginal Tissue ([1]; oral gavage, BID 20/10 mg/kg (Day 1)): 72.9 µg·h/g
- AUC0-24 Vaginal Tissue ([1]; oral gavage, BID 40/20 mg/kg (Day 1)): 204 µg·h/g
- AUC0-24 Vaginal Tissue ([1]; oral gavage, BID 80/40 mg/kg (Day 1)): 337 µg·h/g
- AUC0-24 Vaginal Tissue ([1]; oral gavage, BID repeat-dose 10/5 mg/kg (Days 1-4)): 24.4 µg·h/g
- AUC0-24 Vaginal Tissue ([1]; oral gavage, BID repeat-dose 20/10 mg/kg (Days 1-4)): 71.6 µg·h/g
- AUC0-24 Vaginal Tissue ([1]; oral gavage, BID repeat-dose 40/20 mg/kg (Days 1-4)): 275 µg·h/g
- AUC0-24 Vaginal Tissue ([1]; oral gavage, BID repeat-dose 80/40 mg/kg (Days 1-4)): 1798 µg·h/g
- AUC0-24 Vaginal Tissue ([1]; oral gavage, QD 10 mg/kg (Day 1)): 26.7 µg·h/g
- AUC0-24 Vaginal Tissue ([1]; oral gavage, QD 20 mg/kg (Day 1)): 53.6 µg·h/g
- AUC0-24 Vaginal Tissue ([1]; oral gavage, QD 40 mg/kg (Day 1)): 187 µg·h/g
- AUC0-24 Vaginal Tissue ([1]; oral gavage, QD 80 mg/kg (Day 1)): 171 µg·h/g
